Laboratory results published in ChEMBL document CHEMBL1150211, “Structure of Irniine, a Pyrrolidine Alkaloid from Arisarum vulgare” (J Nat Prod, 1992).
≈ marks a conversion by molar mass, not a printed value.

Test: Toxicity in brine shrimp
Assay type: organism-based
Settings: artemia, in vivo

## CN1CCC[C@H]1CCCCCCCCCc1ccccc1
  LC50: 1 µg/mL (≈ 3.48 µM)
